The text below walks through data of patent US9278068B2, “Vesicle compositions” (Sensulin LLC, priority 2011, dated 2016).

In the first series the test system is NF-κB. The experiment in a line: NF-κB assay for inflammation (nuclear translocation of NF-κB, immunocytochemistry, PCC). Particulars: HeLa cells, 40 nM, 2 h; PCC between nuclear and cytoplasmic fraction of NF-κB.
Description: 15,000 HeLa cells were plated in 96 well plates the night before the experiments. On the day of the experiments, the cells were treated with the boronic acids (Table 1, below) at three different concentrations (40 nM, 80 nM, and 160 nM) for 2 h. At the end of the incubation, cells were washed with phosphate buffered saline (PBS) and were fixed in 4% paraformaldehyde for 15 min and permeablized with 0.01% Triton X-100 in PBS for 10 min. The cells were washed with PBS three times. Nonspecific sites were blocked with 5% bovine serum albumin (BSA) in PBS and incubated with the Anti-NF-κB for 1 h, followed by incubation with fluorescein isothiocyanate (FITC)-labeled secondary antibody. After washing the cells at the end of the incubation, the cells were treated with 4′,6-diamidino-2-phenylindole (DAPI) for 1 min and kept at 4° C. until further analysis. Images of the cells were acquired with a Beckman-Coulter 100 automated high-throughput microscope system and analyzed using Cytseer software (Vala Sciences, CA). The co-localization of NF-κB was quantified by measuring the PCC between the nuclear and cytoplasmic fraction of the NF-κB molecule. The PCC is a measure of the overlap between the pixel intensities of the nuclear and NF-κB images of the same cell. The PCC values can range from −1 to 1. […] A negative correlation (negative PCC value) indicates an absence of nuclear translocation.
As for `CC(=O)c1ccc(B(O)O)s1` [5-acetyl-2-thiopheneboronic acid], the “Inflammation (PCC) 40 nM” value is listed as 0.02454.
On the same count and under the same terms, then `OB(O)c1ccc(Br)nc1` [2-bromopyridine-5-boronic acid], with 0.00604; and `O=C(O)c1cc(B(O)O)cc([N+](=O)[O-])c1` [3-carboxy-5-nitrophenylboronic acid], with −0.0136; and `OB(O)c1cnn(Cc2ccccc2)c1` [1-benzyl-1H-pyrazole-4-boronic acid], with −0.1081.
Same read-out and setting: the result for `OB(O)c1cc(Br)cs1` [3-bromothiophene-5-boronic acid] reads −0.1162.
On the same count and under the same terms, then `Cn1c(B(O)O)cc2ccccc21` [N-methylindole-2-boronic acid], with −0.126; and `O=Cc1ccoc1B(O)O` [3-formylfuran-2-boronic acid], with −0.0012; and `OB(O)c1cccc(O)c1` [3-hydroxyphenylboronic acid], with −0.1136.
For the compound `COc1ccc(F)cc1B(O)O` [5-fluoro-2-methoxyphenylboronic acid], the “Inflammation (PCC) 40 nM” value is −0.0169.
On the same count and under the same terms, then `O=Cc1sccc1B(O)O` [2-formyl-3-thiopheneboronic acid], with −0.0993; and `OB(O)c1c(F)c(F)c(F)c(F)c1F` [pentafluorophenylboronic acid], with 0.0154; and `OB(O)c1cc2ccccc2nc1Cl` [2-chloro-3-quinolineboronic acid], with 0.08644.
Same read-out and setting: the result for `N#Cc1ccccc1B(O)O` [2-cyanophenylboronic acid] reads −0.0641; that for `OB(O)c1cccc2c1Sc1ccccc1S2` [thianthrene-1-boronic acid], −0.0683; that for `O=[N+]([O-])/C=C/c1cccc(B(O)O)c1` [3-[(E)-2-nitrovinyl]phenylboronic acid], −0.0456.
On the same count and under the same terms, then `N#Cc1ccc(B(O)O)cc1` [4-cyanophenylboronic acid], with −0.0705; and `C=C(B(O)O)c1ccccc1` [1-phenylvinylbornic acid], with −0.1145.
In the case of `OB(O)c1cccs1` [2-thienylboronic acid], the “Inflammation (PCC) 40 nM” value is recorded as −0.121.

Staying with this series, now noted: HeLa cells, 80 nM, 2 h; PCC between nuclear and cytoplasmic fraction of NF-κB.
In the case of `CC(=O)c1ccc(B(O)O)s1` [5-acetyl-2-thiopheneboronic acid], the “Inflammation (PCC) 80 nM” value is recorded as 0.06312.
Still for that read-out and setting: the result for `OB(O)c1ccc(Br)nc1` [2-bromopyridine-5-boronic acid] reads 0.078; that for `O=C(O)c1cc(B(O)O)cc([N+](=O)[O-])c1` [3-carboxy-5-nitrophenylboronic acid], 0.03893.
In the case of `OB(O)c1cnn(Cc2ccccc2)c1` [1-benzyl-1H-pyrazole-4-boronic acid], the “Inflammation (PCC) 80 nM” value was −0.0841.
Same read-out and setting: then `OB(O)c1cc(Br)cs1` [3-bromothiophene-5-boronic acid], with −0.023.
On the same count and under the same terms, then `Cn1c(B(O)O)cc2ccccc21` [N-methylindole-2-boronic acid], with 0.00746.
Same read-out and setting: then `O=Cc1ccoc1B(O)O` [3-formylfuran-2-boronic acid], with 0.0274; and `OB(O)c1cccc(O)c1` [3-hydroxyphenylboronic acid], with 0.04005.
For `COc1ccc(F)cc1B(O)O` [5-fluoro-2-methoxyphenylboronic acid], the “Inflammation (PCC) 80 nM” value is on record as 0.02474.
On the same count and under the same terms, the result for `O=Cc1sccc1B(O)O` [2-formyl-3-thiopheneboronic acid] reads −0.0793; that for `OB(O)c1c(F)c(F)c(F)c(F)c1F` [pentafluorophenylboronic acid], 0.0762; that for `OB(O)c1cc2ccccc2nc1Cl` [2-chloro-3-quinolineboronic acid], 0.05095.
Same read-out and setting: then `N#Cc1ccccc1B(O)O` [2-cyanophenylboronic acid], with 0.0475; and `OB(O)c1cccc2c1Sc1ccccc1S2` [thianthrene-1-boronic acid], with 0.0268; and `O=[N+]([O-])/C=C/c1cccc(B(O)O)c1` [3-[(E)-2-nitrovinyl]phenylboronic acid], with −0.0517.
The same measure, in the same setting: then `N#Cc1ccc(B(O)O)cc1` [4-cyanophenylboronic acid], with −0.204; and `C=C(B(O)O)c1ccccc1` [1-phenylvinylbornic acid], with 0.03776; and `OB(O)c1cccs1` [2-thienylboronic acid], with −0.0343.

Staying with this series, now noted: HeLa cells, 160 nM, 2 h; PCC between nuclear and cytoplasmic fraction of NF-κB.
As to `CC(=O)c1ccc(B(O)O)s1` [5-acetyl-2-thiopheneboronic acid], the “Inflammation (PCC) 160 nM” value was found to be 0.2343.
`OB(O)c1ccc(Br)nc1` [2-bromopyridine-5-boronic acid]: the “Inflammation (PCC) 160 nM” value is listed as 0.1446.
On the same count and under the same terms, the result for `O=C(O)c1cc(B(O)O)cc([N+](=O)[O-])c1` [3-carboxy-5-nitrophenylboronic acid] reads 0.1227; that for `OB(O)c1cnn(Cc2ccccc2)c1` [1-benzyl-1H-pyrazole-4-boronic acid], 0.03839.
As for `OB(O)c1cc(Br)cs1` [3-bromothiophene-5-boronic acid], the “Inflammation (PCC) 160 nM” value was 0.1539.
Take `Cn1c(B(O)O)cc2ccccc21` [N-methylindole-2-boronic acid]: the “Inflammation (PCC) 160 nM” value is reported as 0.1336.
On the same count and under the same terms, then `O=Cc1ccoc1B(O)O` [3-formylfuran-2-boronic acid], with 0.08621; and `OB(O)c1cccc(O)c1` [3-hydroxyphenylboronic acid], with 0.
Same read-out and setting: then `COc1ccc(F)cc1B(O)O` [5-fluoro-2-methoxyphenylboronic acid], with 0.2936; and `O=Cc1sccc1B(O)O` [2-formyl-3-thiopheneboronic acid], with 0.1262; and `OB(O)c1c(F)c(F)c(F)c(F)c1F` [pentafluorophenylboronic acid], with 0.2584.
Take `OB(O)c1cc2ccccc2nc1Cl` [2-chloro-3-quinolineboronic acid]: the “Inflammation (PCC) 160 nM” value is on record as 0.193.
Still for that read-out and setting: then `N#Cc1ccccc1B(O)O` [2-cyanophenylboronic acid], with 0.104; and `OB(O)c1cccc2c1Sc1ccccc1S2` [thianthrene-1-boronic acid], with 0.1094.
Still for that read-out and setting: the result for `O=[N+]([O-])/C=C/c1cccc(B(O)O)c1` [3-[(E)-2-nitrovinyl]phenylboronic acid] reads 0.2058; that for `N#Cc1ccc(B(O)O)cc1` [4-cyanophenylboronic acid], 0.4879.
Still for that read-out and setting: then `C=C(B(O)O)c1ccccc1` [1-phenylvinylbornic acid], with 0; and `OB(O)c1cccs1` [2-thienylboronic acid], with 0.

Still in this series, the particulars now being: HeLa cells; boronic acids 80 nM, 2 hrs; LPS positive control.
On to “lipopolysaccharide [LPS, reference compound]”, for which the “nuclear or cytoplasmic localization of NF-κB (FIG. 4 images)” value is “nuclear translocation of NF-κB”.

Another series concerns HeLa cells. The experiment in a line: MTT assay for cytotoxicity. To be noted: 40 nM, 2 h. (In general: Formazan colour is commonly taken as a measure of viable cells.)
Consider `CC(=O)c1ccc(B(O)O)s1` [5-acetyl-2-thiopheneboronic acid], for which the “MTT (% Cell Survival) 40 nM” value is 84.50%.
Still for that read-out and setting: the result for `OB(O)c1ccc(Br)nc1` [2-bromopyridine-5-boronic acid] reads 95.1013%; that for `O=C(O)c1cc(B(O)O)cc([N+](=O)[O-])c1` [3-carboxy-5-nitrophenylboronic acid], 54.3094%; that for `OB(O)c1cnn(Cc2ccccc2)c1` [1-benzyl-1H-pyrazole-4-boronic acid], 100.88%.
In the case of `OB(O)c1cc(Br)cs1` [3-bromothiophene-5-boronic acid], the “MTT (% Cell Survival) 40 nM” value is listed as 116.67%.
For `Cn1c(B(O)O)cc2ccccc21` [N-methylindole-2-boronic acid], the “MTT (% Cell Survival) 40 nM” value was 63.3131%.
Consider `O=Cc1ccoc1B(O)O` [3-formylfuran-2-boronic acid], for which the “MTT (% Cell Survival) 40 nM” value was found to be 107.84%.
For the compound `OB(O)c1cccc(O)c1` [3-hydroxyphenylboronic acid], the “MTT (% Cell Survival) 40 nM” value turned out to be 104.60%.
On to `COc1ccc(F)cc1B(O)O` [5-fluoro-2-methoxyphenylboronic acid], for which the “MTT (% Cell Survival) 40 nM” value is recorded as 84.22%.
The same measure, in the same setting: then `O=Cc1sccc1B(O)O` [2-formyl-3-thiopheneboronic acid], with 55.3376%; and `OB(O)c1c(F)c(F)c(F)c(F)c1F` [pentafluorophenylboronic acid], with 65.63%.
The same measure, in the same setting: then `OB(O)c1cc2ccccc2nc1Cl` [2-chloro-3-quinolineboronic acid], with 30.1105%; and `N#Cc1ccccc1B(O)O` [2-cyanophenylboronic acid], with 117.42%; and `OB(O)c1cccc2c1Sc1ccccc1S2` [thianthrene-1-boronic acid], with 64.19%.
For `O=[N+]([O-])/C=C/c1cccc(B(O)O)c1` [3-[(E)-2-nitrovinyl]phenylboronic acid], the “MTT (% Cell Survival) 40 nM” value came out at 116.00%.
The same measure, in the same setting: then `N#Cc1ccc(B(O)O)cc1` [4-cyanophenylboronic acid], with 60.40%; and `C=C(B(O)O)c1ccccc1` [1-phenylvinylbornic acid], with 66.08%.
The same measure, in the same setting: then `OB(O)c1cccs1` [2-thienylboronic acid], with 53.48%.

The series is the same for the next values; noted with them: 80 nM, 2 h.
As to `CC(=O)c1ccc(B(O)O)s1` [5-acetyl-2-thiopheneboronic acid], the “MTT (% Cell Survival) 80 nM” value was determined as 82.81%.
Same read-out and setting: then `OB(O)c1ccc(Br)nc1` [2-bromopyridine-5-boronic acid], with 120.589%; and `O=C(O)c1cc(B(O)O)cc([N+](=O)[O-])c1` [3-carboxy-5-nitrophenylboronic acid], with 46.2431%.
Still for that read-out and setting: then `OB(O)c1cnn(Cc2ccccc2)c1` [1-benzyl-1H-pyrazole-4-boronic acid], with 62.54%.
Same read-out and setting: the result for `OB(O)c1cc(Br)cs1` [3-bromothiophene-5-boronic acid] reads 97.63%.
Turning to `Cn1c(B(O)O)cc2ccccc21` [N-methylindole-2-boronic acid], the “MTT (% Cell Survival) 80 nM” value worked out at 63.6075%.
Still for that read-out and setting: then `O=Cc1ccoc1B(O)O` [3-formylfuran-2-boronic acid], with 73.72%; and `OB(O)c1cccc(O)c1` [3-hydroxyphenylboronic acid], with 62.75%; and `COc1ccc(F)cc1B(O)O` [5-fluoro-2-methoxyphenylboronic acid], with 84.22%.
On the same count and under the same terms, the result for `O=Cc1sccc1B(O)O` [2-formyl-3-thiopheneboronic acid] reads 40.3684%.
Regarding `OB(O)c1c(F)c(F)c(F)c(F)c1F` [pentafluorophenylboronic acid], the “MTT (% Cell Survival) 80 nM” value worked out at 60.00%.
Turning to `OB(O)c1cc2ccccc2nc1Cl` [2-chloro-3-quinolineboronic acid], the “MTT (% Cell Survival) 80 nM” value is 44.7882%.
The same measure, in the same setting: then `N#Cc1ccccc1B(O)O` [2-cyanophenylboronic acid], with 62.63%; and `OB(O)c1cccc2c1Sc1ccccc1S2` [thianthrene-1-boronic acid], with 61.32%.
Same read-out and setting: the result for `O=[N+]([O-])/C=C/c1cccc(B(O)O)c1` [3-[(E)-2-nitrovinyl]phenylboronic acid] reads 96.38%; that for `N#Cc1ccc(B(O)O)cc1` [4-cyanophenylboronic acid], 63.69%.
Same read-out and setting: then `C=C(B(O)O)c1ccccc1` [1-phenylvinylbornic acid], with 67.23%; and `OB(O)c1cccs1` [2-thienylboronic acid], with 75.76%.

Still in this series, the particulars now being: 160 nM, 2 h.
As to `CC(=O)c1ccc(B(O)O)s1` [5-acetyl-2-thiopheneboronic acid], the “MTT (% Cell Survival) 160 nM” value worked out at 51.27%.
On the same count and under the same terms, the result for `OB(O)c1ccc(Br)nc1` [2-bromopyridine-5-boronic acid] reads 35.78%; that for `O=C(O)c1cc(B(O)O)cc([N+](=O)[O-])c1` [3-carboxy-5-nitrophenylboronic acid], 33.3%; that for `OB(O)c1cnn(Cc2ccccc2)c1` [1-benzyl-1H-pyrazole-4-boronic acid], 86.11%.
The same measure, in the same setting: then `OB(O)c1cc(Br)cs1` [3-bromothiophene-5-boronic acid], with 62.08%; and `Cn1c(B(O)O)cc2ccccc21` [N-methylindole-2-boronic acid], with 47.46%; and `O=Cc1ccoc1B(O)O` [3-formylfuran-2-boronic acid], with 65.18%.
The same measure, in the same setting: then `OB(O)c1cccc(O)c1` [3-hydroxyphenylboronic acid], with 89.29%; and `COc1ccc(F)cc1B(O)O` [5-fluoro-2-methoxyphenylboronic acid], with 54.92%.
As to `O=Cc1sccc1B(O)O` [2-formyl-3-thiopheneboronic acid], the “MTT (% Cell Survival) 160 nM” value turned out to be 46.21%.
Still for that read-out and setting: the result for `OB(O)c1c(F)c(F)c(F)c(F)c1F` [pentafluorophenylboronic acid] reads 50.98%; that for `OB(O)c1cc2ccccc2nc1Cl` [2-chloro-3-quinolineboronic acid], 32.43%; that for `N#Cc1ccccc1B(O)O` [2-cyanophenylboronic acid], 60.33%.
Same read-out and setting: then `OB(O)c1cccc2c1Sc1ccccc1S2` [thianthrene-1-boronic acid], with 81.10%; and `O=[N+]([O-])/C=C/c1cccc(B(O)O)c1` [3-[(E)-2-nitrovinyl]phenylboronic acid], with 73.93%.
The same measure, in the same setting: the result for `N#Cc1ccc(B(O)O)cc1` [4-cyanophenylboronic acid] reads 54.22%; that for `C=C(B(O)O)c1ccccc1` [1-phenylvinylbornic acid], 58.91%; that for `OB(O)c1cccs1` [2-thienylboronic acid], 61.19%.
